# Assay results from patent US12391674B2, “Heterocyclic compounds for the treatment of epilepsy” (OTSUKA PHARMACEUTICAL CO., LTD., priority 2018, dated 2025).
# How the values were obtained:
# [1] = tested on: DBA/2 mice; test: Audiogenic seizure model; format: in vivo; details: Mus musculus, DBA/2 mice, oral, auditory stimulation 1 hour after administration, read-out: Seizure suppression
# Summary of the method: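 Male and female DBA/2 mice (3 weeks old, 8/group) dosed orally at 30 mg/kg in 5% gum arabic; 1 h later exposed to 12.6 kHz, 100-110 dB tone for 1 min or until tonic seizure. Maximum seizure score (0–4) recorded; suppression rate graded A (≥90%), B (70–<90%), C (50–<70%).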
# [2] = tested on: ICR mice; test: Rotarod test (motor coordination); format: in vivo, mouse; details: oral, rotarod 1 hour after administration
# Summary of the method: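 Motor coordination was assessed in male ICR mice (Japan SLC, Inc., 5-6 weeks old, 8 per group). Animals were first trained to stay for 2 minutes on a rotarod turning at a fixed 15 rpm. One hour after oral dosing, each mouse was placed on a rod accelerating from 4 rpm to 40 rpm over 5 minutes, and latency to fall was recorded for up to 200 seconds. Latencies were expressed relative to the mean of the solvent-treated group.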
SMILES,inhibition in vivo at 30 mg/kg [1],Motor dysfunction ([2]; dose 30 mg/kg),other results
"c1ccc(Oc2ncc(N3CCCCC3)cn2)cc1 [Example 223, 2-Phenoxy-5-(Piperidine-1-Yl)Pyrimidine]",> 90%,A (a coordination disorder of 25% or less),–
c1ccc(Oc2ncc(N3CCOCC3)cn2)cc1 [Example 224],> 90%,A (a coordination disorder of 25% or less),–
"OC1CCN(c2cnc(Oc3ccccc3)nc2)CC1 [Example 226, 1-(2-Phenoxypyrimidin-5-Yl) Piperidin-4-Ol]",–,–,inhibition in vivo at 5 mg/kg [1]: > 90%; Motor dysfunction ([2]; dose 5 mg/kg): B (a coordination disorder of more than 25% and 50% or less)
"O=C1COCCN1c1cnc(Oc2ccccc2)nc1 [Example 229, 4-(2-Phenoxypyrimidin-5-Yl) Morpholin-3-One]",> 90%,A (a coordination disorder of 25% or less),–
O=C1C[C@H](O)CCN1c1cnc(Oc2ccccc2)nc1 [Example 235],> 90%,A (a coordination disorder of 25% or less),–
c1ccc(Oc2ncc(-c3ccc4c(c3)OCO4)cn2)cc1 [Example 236],> 90%,A (a coordination disorder of 25% or less),–
N#Cc1cccc(-c2cnc(Oc3ccccc3)nc2)c1 [Example 237],> 90%,A (a coordination disorder of 25% or less),–
"Nc1ccc(-c2cnc(Oc3ccccc3)nc2)cc1 [Example 239, 4-(2-Phenoxypyrimidin-5-Yl) Aniline]",> 90%,A (a coordination disorder of 25% or less),–
NC(=O)c1ccc(-c2cnc(Oc3ccccc3)nc2)cc1 [Example 243],–,–,inhibition in vivo at 5 mg/kg [1]: > 90%; Motor dysfunction ([2]; dose 5 mg/kg): A (a coordination disorder of 25% or less)
O=C1CCc2cc(-c3cnc(Oc4ccccc4)nc3)ccc2N1 [Example 245],> 90%,A (a coordination disorder of 25% or less),–
c1ccc(Oc2ncc(-c3cccc4cnccc34)cn2)cc1 [Example 248],–,–,inhibition in vivo at 5 mg/kg [1]: > 90%; Motor dysfunction ([2]; dose 5 mg/kg): A (a coordination disorder of 25% or less)
O=c1cnc2cc(-c3cnc(Oc4ccccc4)nc3)ccc2[nH]1 [Example 256],–,–,inhibition in vivo at 5 mg/kg [1]: 70 to 90%; Motor dysfunction ([2]; dose 5 mg/kg): A (a coordination disorder of 25% or less)
c1ccc(Oc2ncc(-c3ccc4[nH]cnc4c3)cn2)cc1 [Example 258],–,–,inhibition in vivo at 5 mg/kg [1]: > 90%; Motor dysfunction ([2]; dose 5 mg/kg): A (a coordination disorder of 25% or less)
O=C1Cc2cc(-c3cnc(Oc4ccccc4)nc3)ccc2N1 [Example 259],–,–,inhibition in vivo at 5 mg/kg [1]: > 90%; Motor dysfunction ([2]; dose 5 mg/kg): A (a coordination disorder of 25% or less)
"c1ccc(Oc2ncc(-c3ccc4[nH]ccc4c3)cn2)cc1 [Example 262, 5-(2-Phenoxypyrimidin-5-Yl)-1H-Indole]",–,–,inhibition in vivo at 5 mg/kg [1]: > 90%; Motor dysfunction ([2]; dose 5 mg/kg): A (a coordination disorder of 25% or less)
Cn1ncc2ccc(-c3cnc(Oc4ccccc4)nc3)nc21 [Example 275],> 90%,A (a coordination disorder of 25% or less),–
FC(F)(F)c1nnc2ccc(-c3cnc(Oc4ccccc4)nc3)cn12 [Example 279],–,–,inhibition in vivo at 1 mg/kg [1]: > 90%; Motor dysfunction ([2]; dose 1 mg/kg): A (a coordination disorder of 25% or less)
c1ccc(Oc2ncc(-c3ccn4cncc4c3)cn2)cc1 [Example 283],–,–,inhibition in vivo at 5 mg/kg [1]: > 90%; Motor dysfunction ([2]; dose 5 mg/kg): A (a coordination disorder of 25% or less)
FC(F)(F)c1ncc2ccc(-c3cnc(Oc4ccccc4)nc3)cn12 [Example 285],–,–,inhibition in vivo at 5 mg/kg [1]: > 90%; Motor dysfunction ([2]; dose 5 mg/kg): A (a coordination disorder of 25% or less)
c1ccc(Oc2ncc(-c3ccc4nncn4n3)cn2)cc1 [Example 289],–,–,inhibition in vivo at 1 mg/kg [1]: > 90%; Motor dysfunction ([2]; dose 1 mg/kg): A (a coordination disorder of 25% or less)
c1cncc(Oc2ncc(-c3ccc4nccn4c3)cn2)c1 [Example 294],–,–,inhibition in vivo at 5 mg/kg [1]: > 90%; Motor dysfunction ([2]; dose 5 mg/kg): A (a coordination disorder of 25% or less)

SMILES,inhibition in vivo at 30 mg/kg [1],Motor dysfunction ([2]; dose 30 mg/kg),other results
FC(F)(F)c1ncc(-c2cnc(Oc3ccccc3)nc2)cn1 [Example 296],> 90%,A (a coordination disorder of 25% or less),–
N#Cc1ccc(-c2cnc(Oc3ccccc3)nc2)cn1 [Example 297],–,–,inhibition in vivo at 1 mg/kg [1]: > 90%; Motor dysfunction ([2]; dose 1 mg/kg): A (a coordination disorder of 25% or less)
Nc1nc2ccc(-c3cnc(Oc4ccccc4)nc3)cn2n1 [Example 298],–,–,inhibition in vivo at 1 mg/kg [1]: > 90%; Motor dysfunction ([2]; dose 1 mg/kg): A (a coordination disorder of 25% or less)
FC(F)(F)c1cc(-c2cnc(Oc3ccccc3)nc2)ccn1 [Example 299],–,–,inhibition in vivo at 5 mg/kg [1]: > 90%; Motor dysfunction ([2]; dose 5 mg/kg): A (a coordination disorder of 25% or less)
FC(F)(F)c1ccnc(-c2cnc(Oc3ccccc3)nc2)n1 [Example 300],> 90%,A (a coordination disorder of 25% or less),–
"O=C1CCN(c2ccc(Oc3cccc(F)c3)cc2)C(=O)N1 [Example 302, 1-(4-(3-Fluorophenoxy)Phenyl)Dihydropyrimidine-2,4 (1H,3H)-Dione]",> 90%,A (a coordination disorder of 25% or less),–
O=C1CCN(c2ccc(Oc3ccccc3)cc2)C(=O)N1 [Example 303],> 90%,A (a coordination disorder of 25% or less),–
O=C1CCN(c2ccc(Cc3ccccc3)cc2)C(=O)N1 [Example 304],> 90%,A (a coordination disorder of 25% or less),–
"O=C1CCN(c2ccc(Cc3cccc(F)c3)cc2)C(=O)N1 [Example 305, 1-(4-(3-Fluorobenzyl)Phenyl)Dihydropyrimidine-2,4 (1H,3H)-Dione]",> 90%,A (a coordination disorder of 25% or less),–
O=C1CCN(c2ccc(Oc3cccc(C(F)(F)F)c3)cc2)C(=O)N1 [Example 307],70 to 90%,A (a coordination disorder of 25% or less),–
O=C1CCN(c2ccc(Oc3ccccc3F)cc2)C(=O)N1 [Example 309],> 90%,A (a coordination disorder of 25% or less),–
COc1cccc(Oc2ccc(N3CCC(=O)NC3=O)cc2)c1 [Example 311],70 to 90%,A (a coordination disorder of 25% or less),–
"O=C1CCN(c2ccc(Oc3cccc(OC(F)F)c3)cc2)C(=O)N1 [Example 314, 1-{4-[3-(Difluoromethoxy) Phenoxy]Phenyl}Dihydropyrimidine-2,4 (1H,3H)-Dione]",> 90%,A (a coordination disorder of 25% or less),–
O=C1CCN(c2ccc(Oc3ccccn3)cc2)C(=O)N1 [Example 316],> 90%,A (a coordination disorder of 25% or less),–
O=C1CCN(c2ccc(Oc3ccccc3)nc2)C(=O)N1 [Example 320],> 90%,B (a coordination disorder of more than 25% and 50% or less),–
Cc1cc(Oc2ccccc2)ccc1N1CCC(=O)NC1=O [Example 323],–,B (a coordination disorder of more than 25% and 50% or less),inhibition in vivo at 39 mg/kg ([1]; dose 39 mg/kg): 70 to 90%
Cc1cc(Oc2ccccc2)ncc1N1CCC(=O)NC1=O [Example 325],70 to 90%,A (a coordination disorder of 25% or less),–
"CC1CC(=O)NC(=O)N1c1ccc(Oc2ccccc2)cc1 (stereo not drawn) [Example 328, 6-Methyl-1-(4-Phenoxyphenyl)Dihydropyrimidine-2,4 (1H,3H)-Dione]",> 90%,A (a coordination disorder of 25% or less),–
O=C1CCN(c2ccc(Oc3ccccc3)c(F)c2)C(=O)N1 [Example 329],70 to 90%,A (a coordination disorder of 25% or less),–
O=C1CCN(c2ccc(Oc3ccccc3F)nc2)C(=O)N1 [Example 331],70 to 90%,A (a coordination disorder of 25% or less),–
O=C1CCN(c2ccc(Oc3cccc(F)c3)nc2)C(=O)N1 [Example 332],70 to 90%,A (a coordination disorder of 25% or less),–
